Like-named read-outs stand apart in the source and are kept apart here.
Tests used:
[1] = test system: Rabbit nail bleeding models; assay: Bleeding time evaluation test using rabbit nail bleeding model; assay type: in vivo; conditions: for Bleeding time: Experiment 1 (maximum 30 minutes), rabbit; for Bleeding time (fold-increase): Experiment 1, ratio to vehicle group average
Method: Rabbit nail bleeding models were prepared by a modification of the report of Wong et al. (Wong P C. et al., J. Thromb. Haemost. 7: 1313-1320 (2009)). Male rabbits (JW, 1.5 to 3.5 kg) were anesthetized by the inhalation of isoflurane (ISOFLU®, manufactured by DS Pharma Animal Health Co., Ltd.) (introduced anesthesia: 4%, continuous anesthesia: 2 to 3%).
For the intravenous administration of a test drug or a vehicle, an indwelling needle was inserted to the auricular vein, and the test drug or the vehicle was promptly intravenously administered (0.67 mL/kg) and then continuously intravenously administered (1 mL/kg/hr). One hour after the start of administration, three posterior toenails were cut and dipped in saline heated to approximately 37° C., and the bleeding time was measured. The bleeding time was defined as a time from the cutting to the arrest of bleeding, and an average value from the three nails was used. The measurement time was 30 minutes at the maximum for experiment 1 and 60 minutes at the maximum for experiment 2. In each experiment, if bleeding for 30 minutes or 60 minutes or longer was confirmed, the bleeding time was regarded as 30 minutes or 60 minutes.

[2] = test system: Rabbit venous thrombus models; assay: In vivo antithrombotic effect evaluation test using rabbit (arteriovenous shunt); conditions: prompt i.v. + continuous i.v.
Method: Rabbit venous thrombus models were prepared by a modification of the report of Wong et al. (Wong P C. et al., J. Pharmacol. Exp. Ther. 292: 351-357 (2000)). Male rabbits (JW, 2 to 4 kg) were anesthetized by the inhalation of isoflurane (ISOFLU®, manufactured by DS Pharma Animal Health Co., Ltd.) (introduced anesthesia: 4%, continuous anesthesia: 1.5 to 2.5%). A tracheostomy tube was inserted to each rabbit, which was then ventilated using a respirator. For the intravenous administration of a test drug and blood collection, catheters were inserted to the right femoral vein and the right femoral artery, respectively. An arteriovenous shunt filled with saline was inserted to the carotid artery and the jugular vein. The arteriovenous shunt was prepared by connecting Atom extension tubes (4Fr) having lengths of 15 cm and 13 cm to the artery side and the vein side, respectively, of a polyethylene tube (length: 60 cm, outside diameter: 11.1 mm, inside diameter: 7.9 mm). Also, 4-0 silk thread having a length of 5 cm was indwelled in the arteriovenous shunt. Blood was sent for 30 minutes from the carotid artery to the jugular vein via the arteriovenous shunt. The shunt was removed, and the weight of the silk thread covered with thrombus was measured. The weight of the silk thread measured before the experiment was subtracted from the measured weight, and the obtained value was used as a wet thrombus weight. One hour before the open of the arteriovenous shunt, the test drug or a vehicle was promptly intravenously administered (0.67 mL/kg) and then continuously intravenously administered (1 mL/kg/hr). The continuous injection was continued throughout the experiment. Further, an existing anticoagulant dabigatran (antithrombin drug) and rivaroxaban (FXa inhibitor) were tested as control drugs.
In order to measure aPTT of blood samples as an index for the intrinsic coagulation pathway, blood was collected before administration and immediately before cessation of blood flow, and plasma was prepared using 3.2% sodium citrate. After incubation at 37° C. for 6 minutes, an STA reagent Cephascreen (for aPTT assay; manufactured by Roche Diagnostics K.K.) was added in an amount equal thereto, and the mixture was further incubated for 4 minutes. STA calcium chloride (manufactured by Roche Diagnostics K.K.) was added in an amount equal thereto, and the time required for coagulation was measured.
In order to measure prothrombin time (PT) of blood samples as an index for the extrinsic coagulation pathway, blood was collected before administration and immediately before cessation of blood flow, and plasma was prepared using 3.2% sodium citrate. After incubation at 37° C. for 10 minutes, Neoplastin Plus (for PT assay; manufactured by Roche Diagnostics K.K.) was added in a double amount, and the time required for coagulation was measured.

Human FXIa = Human FXIa (Homo sapiens, UniProt P03951); assay: In vitro activated factor XI (FXIa) inhibition test; assay type: biochemical; parameters: purchased Enzyme Research Laboratories
Chain of Human FXIa (P03951 388-625 limits assumed): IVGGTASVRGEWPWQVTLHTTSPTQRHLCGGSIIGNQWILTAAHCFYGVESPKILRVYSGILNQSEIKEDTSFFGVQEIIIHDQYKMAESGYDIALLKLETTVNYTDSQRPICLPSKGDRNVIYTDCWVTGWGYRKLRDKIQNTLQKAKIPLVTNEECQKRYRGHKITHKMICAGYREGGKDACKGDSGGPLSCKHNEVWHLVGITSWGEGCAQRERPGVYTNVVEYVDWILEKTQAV
Chain of Human FXIa (P03951 19-387 partner limits assumed): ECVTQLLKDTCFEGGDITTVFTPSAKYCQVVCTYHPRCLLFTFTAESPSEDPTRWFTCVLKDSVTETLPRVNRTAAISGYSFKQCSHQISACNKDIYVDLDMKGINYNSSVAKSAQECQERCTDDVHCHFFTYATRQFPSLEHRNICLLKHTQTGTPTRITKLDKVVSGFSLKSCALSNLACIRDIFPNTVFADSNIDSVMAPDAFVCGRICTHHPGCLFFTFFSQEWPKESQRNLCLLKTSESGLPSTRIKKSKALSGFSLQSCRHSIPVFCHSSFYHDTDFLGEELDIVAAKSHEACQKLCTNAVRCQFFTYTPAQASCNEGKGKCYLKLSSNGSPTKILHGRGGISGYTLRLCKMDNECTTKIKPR

[3] = dose 0.03 + 0.045 mg/kg + mg/kg/h i.v.
[4] = dose 0.1 + 0.15 mg/kg + mg/kg/h i.v.
[5] = dose 0.3 + 0.45 mg/kg + mg/kg/h i.v.
[6] = dose 0.01 + 0.015 mg/kg + mg/kg/h
[7] = dose 0.03 + 0.045 mg/kg + mg/kg/h
[8] = dose 0.1 + 0.15 mg/kg + mg/kg/h
[9] = substrate S-2366, 37° C., 10 minutes, read-out: FXIa Inhibition activity IC50

SMILES: CCCCCCOC(=O)NC(=N)c1ccc(NCc2nc3cc(C(=O)N(CCC(=O)OCC)c4ccccn4)ccc3n2C)cc1 [Dabigatran etexilate]
- Bleeding time [1, 3]: 1276 ± 353 s
- Bleeding time [1, 4]: 1800 ± 0 s
- Bleeding time [1, 5]: 1800 ± 0 s
- Bleeding time (fold-increase) [1, 3]: 2.7 ± 0.7 fold-increase
- Bleeding time (fold-increase) [1, 4]: 3.8 ± 0.0 fold-increase
- Bleeding time (fold-increase) [1, 5]: 3.8 ± 0.0 fold-increase
- PT (ratio) [2, 6]: 1.07 ± 0.02 ratio
- Thrombus weight [2, 6]: 62 ± 18 mg
- aPTT (ratio) [2, 6]: 1.28 ± 0.07 ratio
- PT (ratio) [2, 7]: 1.23 ± 0.10 ratio
- Thrombus weight [2, 7]: 32 ± 9 mg
- aPTT (ratio) [2, 7]: 1.58 ± 0.15 ratio
- PT (ratio) [2, 8]: 2.29 ± 0.29 ratio
- Thrombus weight [2, 8]: 12 ± 4 mg
- aPTT (ratio) [2, 8]: 2.34 ± 0.12 ratio

SMILES: NC[C@H]1CC[C@H](C(=O)N2CC[C@@H](C3CCCCC3)[C@H]2C(=O)Nc2ccc3[nH]c(C(=O)O)cc3c2)CC1 [Example 23]
- IC50 (Human FXIa; [9]): 3 nM

SMILES: N[C@H](CF)[C@H]1CC[C@H](C(=O)N2CC[C@@H](N3CCCCC3)[C@H]2C(=O)Nc2ccc3[nH]c(C(=O)O)cc3c2)CC1 [Example 25, 5-[(2S,3R)-1-({trans-4-[(1S)-1-Amino-2-fluoroethyl]cyclohexyl}carbonyl)-3-(piperidin-1-yl)pyrrolidine-2-carboxamide]-1H-indole-2-carboxylic acid 2-trifluoroacetate]
- IC50 (Human FXIa; [9]): 19 nM

SMILES: NC(CF)[C@H]1CC[C@H](C(=O)N2CC[C@@H](C3CCCCC3)[C@H]2C(=O)Nc2ccc3[nH]c(C(=O)O)c(F)c3c2)CC1 (some centres unmarked) [Reference Example 36]
- IC50 (Human FXIa; [9]): 45 nM

SMILES: CCc1c(C(=O)O)[nH]c2ccc(NC(=O)[C@@H]3[C@H](C4CCCCC4)CCN3C(=O)[C@H]3CC[C@H]([C@H](N)CF)CC3)cc12 [Reference Example 42]
- IC50 (Human FXIa; [9]): 91 nM

SMILES: N[C@H](CF)[C@H]1CC[C@H](C(=O)N2CC[C@@H](C3CCCCC3)[C@H]2C(=O)Nc2ccc3[nH]c(C(=O)O)c(Cl)c3c2)CC1 [compound 37]
- IC50 (Human FXIa): 18 nM

SMILES: NC(CF)[C@H]1CC[C@H](C(=O)N2CC[C@@H](c3ccc(F)cc3)[C@H]2C(=O)Nc2ccc3[nH]c(C(=O)O)cc3c2)CC1 (some centres unmarked) [compound 38]
- IC50 (Human FXIa; [9]): 30 nM

SMILES: Cc1c(C(=O)O)[nH]c2ccc(NC(=O)[C@@H]3[C@H](C4CCCCC4)CCN3C(=O)[C@H]3CC[C@H]([C@H](N)CF)CC3)cc12 [compound 39]
- IC50 (Human FXIa; [9]): 145 nM

SMILES: NC[C@H]1CC[C@H](C(=O)N2CC[C@@H](c3ccccc3)[C@H]2C(=O)Nc2ccc3[nH]c(C(=O)O)cc3c2)CC1 [compound 40]
- IC50 (Human FXIa; [9]): 9 nM

SMILES: COc1ccc([C@H]2CCN(C(=O)[C@H]3CC[C@H]([C@H](N)CF)CC3)[C@@H]2C(=O)Nc2ccc3[nH]c(C(=O)O)cc3c2)cc1 [compound 43]
- IC50 (Human FXIa; [9]): 76 nM

SMILES: N[C@H](CF)[C@H]1CC[C@H](C(=O)N2CC[C@H](c3ccc(F)cc3)[C@H]2C(=O)Nc2ccc3[nH]c(C(=O)O)cc3c2)CC1 [compound 44]
- IC50 (Human FXIa; [9]): 33 nM

SMILES: N[C@H](CF)[C@H]1CC[C@H](C(=O)N2CC[C@H](c3ccccc3)[C@H]2C(=O)Nc2ccc3[nH]c(C(=O)O)c(Cl)c3c2)CC1 [compound 45]
- IC50 (Human FXIa; [9]): 60 nM
